US8586369B2, “Ion channel-forming peptides” (The Regents of the University of California, priority 2007, dated 2013)

Key:
[1] = tested on: alkaline phosphatase (AP); assay: Enzymatic hydrolysis of gA phosphate in the presence of AP monitored by single ion channel recordings; format: biochemical
Procedure: To detect a change in single ion channel currents, gA phosphate was added to a final concentration of about 200 pM to both compartments of a planar lipid bilayer platform (FIG. 15) containing a recording electrolyte. AP was added to a final concentration of about 600 nM and the enzymatic conversion of gA phosphate to its hydrolysis product over time was monitored. We estimated the time-dependent conversion of gA phosphate to its hydrolysis product by comparing the fraction of events from gA phosphate to the fraction of events from its hydrolysis product throughout the course of the reaction. […]
Procedure for monitoring the enzymatic hydrolysis of 6 in the presence of AP using single ion channel recordings: For in situ measurements, about 19 μL (from a 100 ng mL-l solution in ethanol) of gA phosphate (to afford a final concentration of 200 pM of 6) was added to each compartment of a bilayer setup containing recording electrolyte. […] Ion channel events were recorded continuously over the course of the reaction. […] Single ion channel events were recorded during a 10 min time window once a day (50-250 events) over the course of 4 days by filling both compartments of the bilayer setup with 4 mL of the solutions with the desired AP concentration. […]

[2] = Single channel conductance of gA phosphate and its hydrolysis product in planar lipid bilayers (Example 3); format: biochemical; conditions: for single channel conductance (γ): 50 mM CsCl, 1 mM MgCl2, 0.5 mM K2CO3, pH 9.8, slopes of I-V curves
Procedure: Formation of Planar Lipid Bilayers: Planar lipid bilayers were formed by the “folding technique” as previously described. The recording electrolyte was 1 mM MgCl2, 50 mM CsCl buffered with 0.5 mM K2CO3 at pH 9.8. Briefly, we spread a solution containing 25 mg mL^−1 1,2-diphytanoyl-sn-glycero-3-phosphatidylcholine (DiPhyPC) lipids in pentane at the air-water interface of the electrolyte solution in both compartments of the bilayer setup. 3 mL of the total volume of 4 mL of electrolyte solution in each bilayer compartment was aspirated into a syringe, followed by dispensing the electrolyte solution back into each compartment.
Ion Channel Measurements: We performed single channel recordings in “voltage clamp mode” using Ag/AgCl pellet electrodes (Warner Instruments) in each compartment of the bilayer setup. Data acquisition and storage was carried out using custom software in combination with an EPC-7 patch clamp amplifier from Heka (set at a gain of 10 mV pA-1 and a filter cutoff frequency of 3 kHz). The data acquisition board (National Instruments, Austin, Tx) for the amplifier was set to a sampling frequency of 15 kHz. The current traces shown in the FIG. 2 were further filtered using a digital Gaussian low-pass filter with a cutoff frequency of 4 Hz.
Analysis of the single channel current traces was performed by computing histograms of the currents from the original current versus time traces with ClampFit 9.2 software from Axon Instruments. From these histograms we extracted the main current values by fitting a Gaussian function to the peaks in the histograms. All conductance values were obtained from the slopes of I-V curves.

gramicidine A (gA) phosphate [gA phosphate]
time after which almost all recorded ion channel events originated from the hydrolysis product ([1]; 200 pM gA phosphate, 600 nM AP, in situ): 35 min
hydrolysis in the absence of AP ([1]; ion channel experiments over the course of 1 h, pH 9.8 recording electrolyte): No hydrolysis was observed
single channel conductance (γ) [2]: ≈ 16 pS
single channel conductance (γ) ([2]; listed as 6): 16.4±0.3 pS and ≈ 16 pS
single channel conductance (γ) ([2]; listed as phosphorylated derivative): 16.4±0.3 pS
factor by which conductance is larger than that of the gA phosphate hydrolysis product ([2]; 125 mV, buffered recording electrolyte): 4
